According to patent US20080292736A1, “Bioavailability enhancing activity of carum carvi extracts and fractions thereof” (COUNCIL OF SCIENTIFIC AND INDUSTRIAL RESEARCH, priority 2001, published 2008):
Like-named read-outs stand apart in the source and are kept apart here.

Key:
[1] = rat, in vivo; for % Enhancement in bioavailability, BE from Zingiber officinale: 35 mg/kg; for % Enhancement in bioavailability, Carum carvi (Cc) Extr.: 30 mg/kg
Protocol: (§1) Bioenhancers of Zingiber officinale, mean 50% alcoholic extract of fresh ginger. The doses remain unchanged whether the bioenhancers are used alone or in combination.
(§2) The amount of bioenhancers used are given below: • i. from Carum carvi: extract 30 mg/kg body weight (rats); Fraction No. 1: 15 mg/kg body weight (rats) • ii. piperine 8 mg/kg body weight (rats) • iii. Zingiber officinale: 35 mg/kg body weight (rats) • The drug used was rifampicin (40 mg/kg). The drug alone or in combination with the bioenhancers was administered to rats as given below: • Group 1: control • Group 2: Rifampicin alone • Group 3: bioenhancer alone • Group 4: Rifampicin with Carum carvi bioenhancer
(§3) Blood from the control/treated animals at predetermined intervals (0-24 hours) (total 14 timings). Rifampicin was extracted from the blood (plasma) using dichloromethane. […] The mobile phase was phosphate buffer:acetonitrile in a ratio of 40:60, and a flow rate of 1.0 ml/min.

[2] = Enhancement of bioavailability of drugs given to rats with bioenhancers (plasma drug level by HPLC); details: for % Enhancement in bioavailability, BE from Zingiber officinale: drug with Zingiber officinale 50% alcoholic extract of fresh ginger 35 mg/kg; for % Enhancement in bioavailability, BE from Zingiber officinale / % Enhancement in bioavailability, Piperine as BE / % Enhancement in bioavailability, Carum carvi + Zingiber officinale / % Enhancement in bioavailability, Carum carvi + Piperine: drug dose as in row; for % Enhancement in bioavailability, Piperine as BE: drug with piperine 8 mg/kg; for % Enhancement in bioavailability, Carum carvi (Cc) Frac 1.: nutraceutical with Carum carvi Fraction No. 1 15 mg/kg; for % Enhancement in bioavailability, Carum carvi + Zingiber officinale, Frac 1. (Cc): nutraceutical with Carum carvi Fraction No. 1 and Zingiber officinale; for % Enhancement in bioavailability, Carum carvi + piperine, Frac 1. (Cc): nutraceutical with Carum carvi Fraction No. 1 and piperine; for % Enhancement in bioavailability, Carum carvi (Cc) Extr.: nutraceutical with Carum carvi extract 30 mg/kg; for % Enhancement in bioavailability, Carum carvi + Zingiber officinale, Extr. (Cc): nutraceutical with Carum carvi extract and Zingiber officinale; for % Enhancement in bioavailability, Carum carvi + piperine, Extr. (Cc): nutraceutical with Carum carvi extract and piperine; for % Enhancement in bioavailability, BE from Carum carvi: drug with Carum carvi bioenhancer (aqueous or 50% alcoholic extract 30 mg/kg or Fraction No. 1 15 mg/kg), drug dose mg/kg; for % Enhancement in bioavailability, Carum carvi + Zingiber officinale: drug with Carum carvi bioenhancer and Zingiber officinale 35 mg/kg; for % Enhancement in bioavailability, Carum carvi + Piperine: drug with Carum carvi bioenhancer and piperine 8 mg/kg
Protocol: as §1, §2, §3

Row | Compound | % Enhancement in bioavailability, BE from Carum carvi [1] | % Enhancement in bioavailability, Carum carvi + Piperine [1] | % Enhancement in bioavailability, Carum carvi + Zingiber officinale [1] | % Enhancement in bioavailability, BE from Zingiber officinale [1] | % Enhancement in bioavailability, Carum carvi + Zingiber officinale, Extr. (Cc) [1] | % Enhancement in bioavailability, Carum carvi + Zingiber officinale, Frac 1. (Cc) [1] | % Enhancement in bioavailability, Carum carvi + piperine, Extr. (Cc) [1] | % Enhancement in bioavailability, Carum carvi + piperine, Frac 1. (Cc) [1] | % Enhancement in bioavailability, Carum carvi (Cc) Extr. [1] | also measured
1 | CC[C@H]1OC(=O)[C@H](C)[C@@H](O[C@H]2C[C@@](C)(OC)[C@@H](O)[C@H](C)O2)[C@H](C)[C@@H](O[C@@H]2O[C@H](C)C[C@H](N(C)C)[C@H]2O)[C@](C)(O)C[C@@H](C)C(=O)[C@H](C)[C@@H](O)[C@]1(C)O [Erythromycin] | 70% | 100% | 105% | 68% |  |  |  |  |  | 
2 | CC[C@H](C)[C@H](N)C(=O)O [Isoleucine] |  |  |  | 15% | 42% | 50% | 37% | 44% | 28% | 
3 | CC[C@H]1OC(=O)[C@H](C)[C@@H](O[C@H]2C[C@@](C)(OC)[C@@H](O)[C@H](C)O2)[C@H](C)[C@@H](O[C@@H]2O[C@H](C)C[C@H](N(C)C)[C@H]2O)[C@](C)(O)C[C@@H](C)/C(=N\OCOCCOC)[C@H](C)[C@@H](O)[C@]1(C)O [Roxythromycin] | 65% | 95% | 98% | 72% |  |  |  |  |  | 
4 | COc1ccc2[nH]c([S+]([O-])Cc3ncc(C)c(OC)c3C)nc2c1 (stereo not drawn) [Omeprazole] | 76% | 70% | 75% | nil |  |  |  |  |  | 
5 | COc1cc(/C=C/C(=O)CC(=O)/C=C/c2ccc(O)c(OC)c2)ccc1O [Curcumin] |  |  |  | 49% | 43% | 52% | 42% | 51% | 40% | 
6 | Nc1nc2c(ncn2COCCO)c(=O)[nH]1 [Acyclovir] | 78% | 100% | 90% | 82% |  |  |  |  |  | 
7 | [Cu] [Copper] |  |  |  | nil | Nil | Nil | nil | Nil | nil | 
8 | O=C(O)Cc1ccccc1Nc1c(Cl)cccc1Cl [Diclofenac] | Nil | 100% | 95% | 90% |  |  |  |  |  | 
9 | C=CC1=C(C(=O)O)N2C(=O)[C@@H](NC(=O)/C(=N\OCC(=O)O)c3csc(N)n3)[C@H]2SC1 [Cefixime] | 80% | 79% | 82% | Nil |  |  |  |  |  | 
10 | CC[C@@H](CO)NCCN[C@@H](CC)CO [Ethambutol] | Nil | nil | nil | Nil |  |  |  |  |  | 
11 | Nc1nc2ncc(CNc3ccc(C(=O)N[C@@H](CCC(=O)O)C(=O)O)cc3)nc2c(=O)[nH]1 [Folio Acid] |  |  |  | nil | nil | nil | nil | nil | Nil | 
12 | [Se] [Selenium] |  |  |  | Nil | nil | nil | Nil | nil | Nil | 
13 | NCCCC[C@H](N)C(=O)O [Lysine] |  |  |  | 19% | 39% | 43% | 33% | 38% | 26% | 
14 | CC1=C(C(=O)O)N2C(=O)[C@@H](NC(=O)[C@H](N)c3ccc(O)cc3)[C@H]2SC1 [Cefadroxil] | 67% | 95% | 85% | 68% |  |  |  |  |  | 
15 | N[C@@H]1CON=C1O [Cycloserine] | 70% | 80% | 75% | 71% |  |  |  |  |  | 
16 | NCC[C@H](O)C(=O)N[C@@H]1C[C@H](N)[C@@H](O[C@H]2O[C@H](CN)[C@@H](O)[C@H](O)[C@H]2O)[C@H](O)[C@H]1O[C@H]1O[C@H](CO)[C@@H](O)[C@H](N)[C@H]1O [Amikacin] | 85% | 100% | 92% | Nil |  |  |  |  |  | 
17 | CCn1cc(C(=O)O)c(=O)c2cc(F)c(N3CCNCC3)cc21 [Norfloxacin] | 55% | 65% | 60% | Nil |  |  |  |  |  | 
18 | C=CC[C@@H]1/C=C(\C)C[C@H](C)C[C@H](OC)[C@H]2O[C@@](O)(C(=O)C(=O)N3CCCC[C@H]3C(=O)O[C@H](/C(C)=C/[C@@H]3CC[C@@H](O)[C@H](OC)C3)[C@H](C)[C@@H](O)CC1=O)[C@H](C)C[C@@H]2OC [Tacrolimus] | 90% | 95% | 114% | 75% |  |  |  |  |  | 
19 | Vitamin A |  |  |  | Nil | 20% | 27% | 13% | 16% | 17% | 
20 | Silymarin |  |  |  | 33% | 38% | 41% | 36% | 45% | 31% | 
21 | [K+] [Potassium] |  |  |  |  |  |  |  |  |  | % Enhancement in bioavailability, BE from Zingiber officinale [2]: nil; % Enhancement in bioavailability, Piperine as BE [2]: nil; % Enhancement in bioavailability, Carum carvi (Cc) Frac 1. [2]: Nil; % Enhancement in bioavailability, Carum carvi + Zingiber officinale, Frac 1. (Cc) [2]: Nil; % Enhancement in bioavailability, Carum carvi + piperine, Frac 1. (Cc) [2]: Nil; % Enhancement in bioavailability, Carum carvi (Cc) Extr. [2]: nil; % Enhancement in bioavailability, Carum carvi + Zingiber officinale, Extr. (Cc) [2]: Nil; % Enhancement in bioavailability, Carum carvi + piperine, Extr. (Cc) [2]: nil
22 | Cc1ncc(C[n+]2csc(CCO)c2C)c(N)n1 [Vit B 1] |  |  |  |  |  |  |  |  |  | % Enhancement in bioavailability, BE from Zingiber officinale [2]: 31%; % Enhancement in bioavailability, Piperine as BE [2]: 17%; % Enhancement in bioavailability, Carum carvi (Cc) Frac 1. [2]: 42%; % Enhancement in bioavailability, Carum carvi + Zingiber officinale, Frac 1. (Cc) [2]: 55%; % Enhancement in bioavailability, Carum carvi + piperine, Frac 1. (Cc) [2]: 26%; % Enhancement in bioavailability, Carum carvi (Cc) Extr. [2]: 37%; % Enhancement in bioavailability, Carum carvi + Zingiber officinale, Extr. (Cc) [2]: 43%; % Enhancement in bioavailability, Carum carvi + piperine, Extr. (Cc) [2]: 21%
23 | Cc1nnc2n1-c1ccc(Cl)cc1C(c1ccccc1)=NC2 [Alprazolam] |  |  |  |  |  |  |  |  |  | % Enhancement in bioavailability, BE from Carum carvi [2]: Nil; % Enhancement in bioavailability, Carum carvi + Zingiber officinale [2]: 80%; % Enhancement in bioavailability, Carum carvi + Piperine [2]: 70%; % Enhancement in bioavailability, BE from Zingiber officinale [2]: 76%; % Enhancement in bioavailability, Piperine as BE [2]: 65%
24 | CN(Cc1cnc2nc(N)nc(N)c2n1)c1ccc(C(=O)N[C@@H](CCC(=O)O)C(=O)O)cc1 [Methotrexate] |  |  |  |  |  |  |  |  |  | % Enhancement in bioavailability, BE from Carum carvi [2]: 76%; % Enhancement in bioavailability, Carum carvi + Zingiber officinale [2]: 102%; % Enhancement in bioavailability, Carum carvi + Piperine [2]: 89%; % Enhancement in bioavailability, BE from Zingiber officinale [2]: 87%; % Enhancement in bioavailability, Piperine as BE [2]: 65%
25 | CSCC[C@H](N)C(=O)O [Methionine] |  |  |  |  |  |  |  |  |  | % Enhancement in bioavailability, BE from Zingiber officinale [2]: 23%; % Enhancement in bioavailability, Piperine as BE [2]: 11%; % Enhancement in bioavailability, Carum carvi (Cc) Frac 1. [2]: 28%; % Enhancement in bioavailability, Carum carvi + Zingiber officinale, Frac 1. (Cc) [2]: 37%; % Enhancement in bioavailability, Carum carvi + piperine, Frac 1. (Cc) [2]: 30%; % Enhancement in bioavailability, Carum carvi (Cc) Extr. [2]: 20%; % Enhancement in bioavailability, Carum carvi + Zingiber officinale, Extr. (Cc) [2]: 30%; % Enhancement in bioavailability, Carum carvi + piperine, Extr. (Cc) [2]: 25%
26 | CS(=O)(=O)c1ccc(C2=C(c3ccccc3)C(=O)OC2)cc1 [Rofecoxib] |  |  |  |  |  |  |  |  |  | % Enhancement in bioavailability, BE from Carum carvi [2]: 75%; % Enhancement in bioavailability, Carum carvi + Zingiber officinale [2]: 80%; % Enhancement in bioavailability, Carum carvi + Piperine [2]: 70%; % Enhancement in bioavailability, BE from Zingiber officinale [2]: Nil; % Enhancement in bioavailability, Piperine as BE [2]: nil
